# Laboratory results reported in the supplement of paper PMC6045584.
# ± gives the standard deviation of the averaged measurements.
# Key:
# [1] = compound: Oc1ccc(/C=C/c2cc(O)cc(O)c2)cc1 [RESVERATROL]; assay: area under dose-response curve of surviving fraction (unscaled, Aref=0) (surviving fraction x log10(nM)); higher = more resistant; conditions: exposure time: 5 days; dose range 0.5-1000 nM
# Procedure, shortened: (§1)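 Inhibitor was applied to tumour cell lines at eight concentrations (0.5 to 1000 nM) for five days in 384-well plates. Luminescence from CellTiter-Glo, scaled to DMSO-only wells, gave surviving fractions in three screens per line, and these were fitted by 3-parameter logistic regression with the drc R package. The area under the curve is an unscaled activity area. Aref was 0, and dose was on a log10 scale.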
# [2] = compound: C=CCNC1=C2C[C@@H](C)C[C@H](OC)[C@H](O)[C@@H](C)/C=C(\C)[C@H](OC(N)=O)[C@@H](OC)/C=C\C=C(/C)C(=O)NC(=CC1=O)C2=O [17-AAG]; assay: as above; conditions: exposure time: 5 days; dose range 0.5-1000 nM
# Procedure, shortened: as §1
# [3] = compound: CC[C@@H](C(=O)[C@@H](C)[C@@H](O)[C@H](C)[C@@H]1O[C@@H]([C@@H](CC)C(=O)O)CC[C@@H]1C)[C@H]1O[C@]2(C=C[C@@H](O)[C@]3(CC[C@@](C)([C@H]4CC[C@](O)(CC)[C@H](C)O4)O3)O2)[C@H](C)C[C@@H]1C [SALINOMYCIN]; assay: as above; conditions: exposure time: 5 days; dose range 0.5-1000 nM
# Procedure, shortened: as §1
# [4] = compound: T1, COc1cccc2c1C(=O)c1c(O)c3c(c(O)c1C2=O)C[C@@](O)(C(=O)CO)C[C@@H]3O[C@H]1C[C@H](N)[C@H](O)[C@H](C)O1 [DOXORUBICIN]; assay: as above; conditions: exposure time: 5 days; dose range 0.5-1000 nM
# Procedure, shortened: as §1
# [5] = compound: O=c1[nH]cc(F)c(=O)[nH]1 [FLUOROURACIL]; assay: as above; conditions: exposure time: 5 days; dose range 0.5-1000 nM
# Procedure, shortened: as §1
# [6] = compound: CN1CC[C@H](c2c(O)cc(O)c3c(=O)cc(-c4ccccc4Cl)oc23)[C@H](O)C1 [FLAVOPIRIDOL]; assay: as above; conditions: exposure time: 5 days; dose range 0.5-1000 nM
# Procedure, shortened: as §1
# [7] = compound: CN(C)CC[C@H](CSc1ccccc1)Nc1ccc(S(=O)(=O)NC(=O)c2ccc(N3CCN(Cc4ccccc4-c4ccc(Cl)cc4)CC3)cc2)cc1[N+](=O)[O-] [ABT-737]; assay: as above; conditions: exposure time: 5 days; dose range 0.5-1000 nM
# Procedure, shortened: as §1
# [8] = compound: COc1cc2c(cc1O)CC[C@@H]1[C@@H]2CC[C@]2(C)[C@@H](O)CC[C@@H]12 [2-METHOXYESTRADIOL]; assay: as above; conditions: exposure time: 5 days; dose range 0.5-1000 nM
# Procedure, shortened: as §1
# [9] = compound: Nc1ncn([C@H]2C[C@H](O)[C@@H](CO)O2)c(=O)n1 [DECITABINE]; assay: as above; conditions: exposure time: 5 days; dose range 0.5-1000 nM
# Procedure, shortened: as §1
# [10] = compound: CS(=O)(=O)c1ccc(C(=O)Nc2ccc(Cl)c(-c3ccccn3)c2)c(Cl)c1 [VISMODEGIB]; assay: as above; conditions: exposure time: 5 days; dose range 0.5-1000 nM
# Procedure, shortened: as §1
# [11] = compound: CCN(CC)CCCCNc1ncc2cc(-c3cc(OC)cc(OC)c3)c(NC(=O)NC(C)(C)C)nc2n1; assay: as above; conditions: exposure time: 5 days; dose range 0.5-1000 nM
# Procedure, shortened: as §1
# [12] = compound: T1, DOXORUBICIN; assay: surviving fraction relative to DMSO-only wells; higher = less growth inhibition; conditions: exposure time: 5 days
# Procedure, shortened: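 Surviving fraction was calculated by normalising CellTiter-Glo luminescence to the median of DMSO-only wells. Tumour cell lines in log phase were seeded in 384-well plates at 250–500 cells per well, and 24 hours later were exposed continuously for five days to inhibitors at 0.5, 1, 5, 10, 50, 100, 500 and 1000 nM.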
# [13] = compound: CS(=O)(=O)CCNCc1ccc(-c2ccc3ncnc(Nc4ccc(OCc5cccc(F)c5)c(Cl)c4)c3c2)o1 [LAPATINIB]; assay: area under dose-response curve of surviving fraction (unscaled, Aref=0) (surviving fraction x log10(nM)); higher = more resistant; conditions: exposure time: 5 days; dose range 0.5-1000 nM
# Procedure, shortened: as §1
Test System,area under dose-response curve [1],area under dose-response curve [2],area under dose-response curve [3],area under dose-response curve [4],area under dose-response curve [5],area under dose-response curve [6],area under dose-response curve [7],area under dose-response curve [8],area under dose-response curve [9],area under dose-response curve [10],area under dose-response curve [11],surviving fraction ([12]; 0.5 nM),surviving fraction ([12]; 1 nM),surviving fraction ([12]; 5 nM),surviving fraction ([12]; 10 nM),surviving fraction ([12]; 50 nM),surviving fraction ([12]; 100 nM),surviving fraction ([12]; 500 nM),surviving fraction ([12]; 1000 nM),area under dose-response curve [13]
S68 BREAST,3.12,0.636,2.67,1.32,2.83,2.32,3.67,3.07,2.84,3.02,3.23,0.792 ± 0.077,0.87 ± 0.13,0.693 ± 0.16,0.424 ± 0.016,0.205 ± 0.013,0.19 ± 0.015,0.037 ± 0.0046,0.0317 ± 0.0011,
SAOS2 BONE,4.04,1.66,3.15,1.85,2.91,2.19,3.87,,3.06,3.12,3.79,1.13 ± 0.038,1.1 ± 0.054,1.09 ± 0.043,0.914 ± 0.055,0.277 ± 0.0081,0.111 ± 0.0087,0.036,0.0367 ± 0.0029,3.95
SCC003 HEADNECK,3.64,2.38,2.91,2.03,3.08,2.22,3.76,,2.94,3.24,3.36,0.959 ± 0.12,1.04 ± 0.12,1.02 ± 0.1,0.855 ± 0.098,0.396 ± 0.046,0.431 ± 0.065,0.11 ± 0.025,0.0417 ± 0.0086,3.11
SCC36 HEADNECK,3.87,1.66,2.7,1.98,2.79,2.3,3.58,,3.08,2.89,,0.694 ± 0.073,1.13 ± 0.046,0.903 ± 0.001,0.795 ± 0.087,0.426 ± 0.024,0.5 ± 0.069,0.035 ± 0.0027,0.034 ± 0.002,2.91
SCC47 HEADNECK,3.79,2.29,3.07,2.27,3.44,2.12,3.89,3.24,,3.19,3.33,1.021 ± 0.0081,1.03 ± 0.11,1.09 ± 0.09,0.966 ± 0.051,0.573 ± 0.027,0.597 ± 0.039,0.09 ± 0.0027,0.0307 ± 0.0015,
SCC90 HEADNECK,,2.31,2.84,2.36,3.17,2.25,3.56,2.68,3.6,2.93,2.96,0.967 ± 0.034,0.956 ± 0.046,0.954 ± 0.029,1.06 ± 0.1,0.711 ± 0.12,0.571 ± 0.072,0.11 ± 0.033,0.0687 ± 0.0095,2.81
SG43 HEADNECK,2.91,1.77,3.03,1.71,3.27,2.35,2.77,2.84,,,3.03,0.854 ± 0.15,0.776 ± 0.14,0.802 ± 0.076,0.675 ± 0.16,0.453 ± 0.056,0.322 ± 0.067,0.0633 ± 0.027,0.048 ± 0.024,2.24
SNU475 LIVER,3.3,1.66,2.58,2.22,3.03,2.33,3.39,3.26,3.4,3.06,3.01,0.958 ± 0.051,0.9777 ± 0.0038,0.982 ± 0.018,0.958 ± 0.059,0.484 ± 0.034,0.392 ± 0.015,0.3 ± 0.032,0.192 ± 0.012,
SUM44 BREAST,3.94,2.02,3.22,2.59,3.15,2.36,,,3.87,3.11,3.27,0.938 ± 0.054,0.887 ± 0.041,0.987 ± 0.044,0.895 ± 0.022,0.859 ± 0.06,0.811 ± 0.051,0.14 ± 0.021,0.054 ± 0.0027,3.72
SUM149 BREAST,3.39,1.29,2.62,1.11,2.9,2.09,3.39,2.9,2.01,2.98,,1.01 ± 0.013,0.961 ± 0.13,0.401 ± 0.056,0.233 ± 0.025,0.186 ± 0.014,0.145 ± 0.0087,0.0277 ± 0.0031,0.0253 ± 0.00058,2.56
U2OS BONE,3.48,2.13,3.16,1.98,3.18,2.2,3.49,3.08,3.01,3.48,3,1.04 ± 0.053,1.01 ± 0.015,0.86 ± 0.018,0.72 ± 0.05,0.606 ± 0.037,0.376 ± 0.013,0.04 ± 0.0017,0.0373 ± 0.0021,
VP229 BREAST,,1.93,2.4,2.61,2.98,2.08,3.82,3.43,,3.65,3.78,1.18 ± 0.067,1.11 ± 0.14,1 ± 0.11,0.931 ± 0.022,0.835 ± 0.11,0.567 ± 0.027,0.569 ± 0.13,0.233 ± 0.056,3.02
YAMATO SYNOVIAL,,2.65,2.25,2.03,3,2.38,4.34,3.05,,,3.96,1.1 ± 0.058,1.14 ± 0.058,0.963 ± 0.069,0.7417 ± 0.0035,0.388 ± 0.018,0.329 ± 0.03,0.258 ± 0.012,0.341 ± 0.016,4.08
